# Source: PubChem BioAssay (NCI)
# Several values for one entry are separate records, joined by “and”; a condition that tells them apart may be missing. Identical values can stand only once.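 Growth conditions: 96-well plates. Treatment: test compound, 48 hours, 5 concentrations. Analysis: linear interpolation between bracketing concentrations; unreached endpoints set to highest concentration. GI50 = concentration required for 50% inhibition of growth. TGI denotes the concentration required for complete inhibition of growth.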
# Key:
# Assay in all cases: NCI tumour cell line growth inhibition, 48 h
# SNB-19 CNS = test system: SNB-19 CNS
# MALME-3M melanoma = test system: MALME-3M melanoma
# U251 CNS = test system: U251 CNS
# SW-620 colon = test system: SW-620 colon
# SN12C renal = test system: SN12C renal
# M14 melanoma = test system: M14 melanoma
# HT29 colon = test system: HT29 colon
# MDA-MB-231 breast = test system: MDA-MB-231 breast
# IGROV1 ovarian = test system: IGROV1 ovarian
# K-562 leukemia = test system: K-562 leukemia
SMILES,TGI (SNB-19 CNS),TGI (MALME-3M melanoma),TGI (U251 CNS),TGI (SW-620 colon),TGI (SN12C renal),TGI (M14 melanoma),TGI (HT29 colon),TGI (MDA-MB-231 breast),TGI (IGROV1 ovarian),GI50 (SNB-19 CNS),GI50 (K-562 leukemia),TGI (K-562 leukemia),GI50 (MALME-3M melanoma),GI50 (U251 CNS),GI50 (SW-620 colon),GI50 (SN12C renal),GI50 (M14 melanoma),GI50 (HT29 colon),GI50 (MDA-MB-231 breast),GI50 (IGROV1 ovarian)
COC(C)C(O)(C(=O)OCC1=CCN2CCC(O)C12)C(C)(C)O (stereo not drawn),> 100 µM,> 100 µM,> 100 µM,> 100 µM,> 100 µM,> 100 µM,> 100 µM,> 100 µM,> 100 µM,,,,,,,,,,,
CC(C)(C)OC(=O)N[C@@H](Cc1ccccc1)C(=O)N(Cc1ccccc1)C1(C(=O)NCc2ccccc2)CCN(Cc2ccccc2)CC1,> 100 µM,,> 100 µM,> 100 µM,> 100 µM,44.5 µM,6.82 µM,79 µM,> 100 µM,5.27 µM,3.39 µM,> 100 µM,3.02 µM,3.19 µM,3.49 µM,3.45 µM,2.6 µM,2.16 µM,3.01 µM,5.7 µM
O=C(O)c1ccc(SSc2ccc(C(=O)O)cn2)nc1,> 100 µM,> 100 µM,> 100 µM,> 100 µM,> 100 µM,> 100 µM,> 100 µM,> 100 µM,> 100 µM,,,> 100 µM,,,,,,,,
C[C@@H]1CC[C@@]2(NC1)O[C@H]1C[C@H]3[C@@H]4CC[C@H]5C[C@@H](O)CC[C@]5(C)[C@H]4CC[C@]3(C)[C@H]1[C@@H]2C,> 100 µM,> 100 µM,> 100 µM,> 100 µM,> 100 µM,> 100 µM,> 100 µM,> 100 µM,> 100 µM,,,> 100 µM,,,,,,,,
COc1ccc2[nH]c(C(=O)OCc3ccc4c(Cl)cc(Cl)c(O)c4n3)cc2c1,5.69 µM,2.82 µM,2.94 µM,2.31 µM,2.51 µM,2.91 µM,2.32 µM,2.18 µM,1.95 µM,2.18 µM,0.355 µM,3.05 µM,1.48 µM,1.55 µM,0.814 µM,1.24 µM,1.44 µM,0.778 µM,1.02 µM,0.601 µM
CCC1=C(CC2NCCc3ccccc32)CC2c3cc(OC)c(OC)cc3CCN2C1 (stereo not drawn),13.7 µM and 11.9 µM,9.64 µM and 2.75 µM,16.4 µM and 2.77 µM,13.4 µM and 6.81 µM,35.6 µM and 7.34 µM,16 µM and 3.49 µM,11.8 µM and 4.53 µM,14.4 µM and 1.75 µM,21.6 µM and 19 µM,3.6 µM,2.26 µM,7.41 µM and 2.1 µM,3.02 µM,4.8 µM,3.62 µM,4.92 µM,4.53 µM,3.31 µM,3.4 µM,4.39 µM
CCOC(=O)CN1C(=O)c2cc([N+](=O)[O-])cc3cc([N+](=O)[O-])cc(c23)C1=O,> 100 µM,> 100 µM,> 100 µM,> 100 µM,> 100 µM,> 100 µM,> 100 µM,> 100 µM,> 100 µM,,,> 100 µM,,,,,,,,
CC(C)(C)OC(=O)Nc1ccc2c(c1)C(NC(=O)Nc1cccc(C#N)c1)CC(C)(C)O2 (stereo not drawn),> 100 µM,> 68 µM,> 58.2 µM,> 100 µM,> 100 µM,40.5 µM,> 100 µM,> 50.7 µM,> 100 µM,3.54 µM,2.12 µM,> 100 µM,3.69 µM,1.76 µM,3.61 µM,4.57 µM,3.73 µM,6.71 µM,4.17 µM,4.44 µM
N#Cc1cccc(N2C(=O)C3C4C=CC(C3C2=O)C2C(=O)N(c3cccc(C#N)c3)C(=O)C42)c1 (stereo not drawn),> 80.1 µM,99.4 µM,26.8 µM,> 100 µM,> 39.8 µM,> 63.1 µM,> 63.1 µM,> 100 µM,49.2 µM,,,55.8 µM,,,,,,,,
COC(=O)N[C@H]1CCc2c(Cl)c(OC)c(OC)c(OC)c2-c2ccc(SC)c(=O)cc21,> 100 µM,30.5 µM,> 40.5 µM,> 100 µM,> 43.9 µM,,> 94.8 µM,11.9 µM,> 52.5 µM,< 0.01 µM,< 0.01 µM,> 43.9 µM,< 0.01 µM,< 0.01 µM,< 0.01 µM,< 0.01 µM,< 0.01 µM,< 0.01 µM,< 0.01 µM,< 0.01 µM
O=C(Nc1cccc(C(F)(F)F)c1)Oc1ccc(Cl)c2cccnc12,> 32.8 µM,3.96 µM,8.57 µM,12.9 µM,7.89 µM,7.83 µM,14.1 µM,6.15 µM,4.43 µM,2.52 µM,1.02 µM,> 100 µM,1.18 µM,0.861 µM,1.49 µM,1.85 µM,1.49 µM,3.9 µM,2.11 µM,1.22 µM
NC(Cc1ccccc1)c1nccs1 (stereo not drawn),> 100 µM,> 100 µM,> 100 µM,> 100 µM,> 100 µM,> 100 µM,> 100 µM,> 100 µM,> 100 µM,,,> 100 µM,,,,,,,,
O=c1[nH]c(=O)n(C2CC(O)C(CO)O2)cc1C(F)(F)F (stereo not drawn),> 100 µM,> 100 µM,> 100 µM,> 100 µM,> 100 µM,> 34.5 µM,> 100 µM,> 100 µM,> 100 µM,2.96 µM,,> 100 µM,> 49.9 µM,4.42 µM,9.78 µM,3.8 µM,1.01 µM,33.8 µM,> 100 µM,9.02 µM
COc1cc2c3c(n(CCCNCCCN)c(=O)c2cc1OC)-c1cc2c(cc1C3=O)OCO2,11.6 µM,8.66 µM,11.4 µM,16.4 µM,13.3 µM,16.7 µM,13.6 µM,12.6 µM,18.9 µM,1.52 µM,3.4 µM,10.4 µM,2.21 µM,1.25 µM,3.29 µM,2.34 µM,4.65 µM,1.7 µM,2.93 µM,2.69 µM
CC[C@H](C)[C@H](NC(=O)c1cccn1C)C(=O)N(C)[C@H](C[C@@H](OC(C)=O)c1nc(C(=O)N[C@@H](Cc2ccccc2)C[C@H](C)C(=O)OC)cs1)C(C)C,> 33.3 µM,> 33.3 µM,> 33.3 µM,> 33.3 µM,> 33.3 µM,0.832 µM,> 29.5 µM,5.75 µM,> 33.3 µM,0.196 µM,0.177 µM,> 33.3 µM,11.1 µM,0.24 µM,0.205 µM,0.351 µM,0.131 µM,0.205 µM,0.364 µM,0.228 µM
C[N+](C)=c1ccc2nc3c(cc(NCCCNc4cc5oc6cc(=[N+](C)C)ccc-6nc5c5ccccc45)c4ccccc43)oc-2c1,19.4 µM,4.45 µM,5.87 µM,4.02 µM,7.39 µM,3.18 µM,6.29 µM,4.83 µM,8.67 µM,3.6 µM,1.57 µM,> 25.5 µM,2.05 µM,2.36 µM,1.77 µM,2.33 µM,1.63 µM,1.81 µM,1.33 µM,1.36 µM
CC(SCc1ccccc1)C(=O)O (stereo not drawn),> 100 µM,> 100 µM,> 100 µM,> 100 µM,> 100 µM,> 100 µM,> 100 µM,> 100 µM,> 100 µM,,,> 100 µM,,,,,,,,
Nc1ccc(/C=C/c2ccc3cccnc3c2)cc1,> 100 µM,> 100 µM,> 100 µM,> 100 µM,> 100 µM,> 100 µM,> 100 µM,> 100 µM,,,,> 100 µM,,,,,,,,
C=C1C(=O)O[C@H]2C[C@@H]1C(=O)CC(C)CCCC(C)=CCC[C@@]2(C)O (stereo partly drawn),> 25 µM,> 25 µM,> 25 µM,> 25 µM,> 25 µM,> 25 µM,> 25 µM,> 25 µM,> 25 µM,,,,,,,,,,,
COc1ccc2nc3cc(Cl)ccc3c(Nc3cc(CN4CCCC4)c(O)c(CN4CCCC4)c3)c2n1,10.7 µM,3.32 µM,11.5 µM,4.95 µM,10.8 µM,2.97 µM,10.5 µM,8.17 µM,13.6 µM,1.84 µM,,,1.83 µM,2.21 µM,0.629 µM,1.35 µM,1.62 µM,1.42 µM,1.86 µM,2.51 µM
CN1CCN(CCCOc2cc(O)c3c(=O)cc(-c4ccccc4)oc3c2)CC1,63.5 µM,42.6 µM,29 µM,42.4 µM,41.3 µM,,30.4 µM,31.7 µM,95.3 µM,24.9 µM,6.98 µM,21.9 µM,20.8 µM,15.1 µM,19.5 µM,18.9 µM,,14.5 µM,16.3 µM,24.9 µM
Cc1cccc2c1[nH]c(=O)c1c3ccccc3cn21,48 µM,24.7 µM,19.4 µM,17.8 µM,18.8 µM,30.9 µM,13.1 µM,17.5 µM,> 100 µM,15.6 µM,,,8.23 µM,6.57 µM,5.76 µM,1.81 µM,12.4 µM,2.16 µM,2.42 µM,3.69 µM
